Assay results reported in patent publication US20100047173A1, “Methods for Using Optical Agents” (priority 2006, published 2010).

How the values were obtained:
[1] = Ex-vivo continuous wave fluorescence imaging of caecum and lower large intestine after IV ICG; assay type: in vivo; conditions: rat, post-IV administration of aqueous ICG solution, 780 nm excitation, 830 nm detection
Protocol: ICG in powdered form was obtained from Sigma (St. Louis, Mo.). Solutions were made by diluting the appropriate amount of ICG in 10 mL of distilled water. Concentrations less than 1 mM were made by serial dilution of a 1 mM stock solution.
The animals were anesthetized with rat cocktail (xylazine; ketamine; acepromazine 1.5: 1.5: 0.5) at 0.8 mL/kg via intraperitoneal injection. A 21 gauge butterfly infusion set equipped with a stopcock and two syringes containing heparinized saline was placed into the lateral tail vein of the rat. Patency of the vein was checked prior to administration of the agent via the butterfly apparatus.
A simple noninvasive in vivo continuous wave fluorescence imaging apparatus was employed as described below. Light from a LaserMax Inc. laser diode of nominal wavelength 780 nm and nominal power of 40 mW was launched into a fiber optic bundle. A defocusing lens in position after the bundle expanded the beam such that most of the rat was illuminated. The laser power at the output of the bundle was approximately one half of the input power. […]
The above imaging system may also used to view and quantify ex-vivo organs and tissues. […] Blue is indicative of high fluorescence, and red is indicative of low fluorescence.

[2] = In vivo fluorescence time dependence at the ear after ICG bolus (blood clearance by the liver), normal vs partially hepatectomized rats; parameters: species or system rat
Protocol: ICG in powdered form was obtained from Sigma (St. Louis, Mo.). Solutions were made by diluting the appropriate amount of ICG in 10 mL of distilled water. Concentrations less than 1 mM were made by serial dilution of a 1 mM stock solution. For ICG fluorescence detection, a nominal 780 nm collimated solid state laser source was employed (LaserMax Inc. model No. LAS-300-780-5). The laser source was directed into the end of a 3.2 mm diameter glass fiber optic bundle (Oriel No. 77526). The other end of this laser delivery bundle was placed approximately 1 cm from the rat ear at an approximate 45° angle. A second similar fiber optic bundle for use as the fluorescence detection conduit was placed approximately 1 cm from the ear at an approximate 30° angle. The exit end of the detection fiber bundle was positioned at the focal length of a 20 mm focal length lens. […] A digital voltmeter monitored the output signal. […]
Female Fischer 344 rats weighing 173-195 g were used. […] The dye was subsequently administered via the indwelling catheter, and the clearance of the agent monitored. […]
To verify that the fluorescence decay curves were related to liver function, and to assess this methodology's feasibility to determine impaired liver function, the following experiment was done. […] A measurement of the time dependence of fluorescence at the ear pre- and post-bolus injection of the ICG solution was measured next. […]

[3] = Open-surgery fluorescence imaging of the cystic duct after IV fluorescein; assay type: in vivo; conditions: anesthetized pig, approximately 80 minutes post-IV administration of 6 mL of 20 mg/mL fluorescein in PBS
Protocol: FIG. 1 depicts green fluorescence from fluorescein traveling through a cystic duct in an anesthetized pig. The image was taken during open surgery, post-IV administration of 6 mL of a 20 mg/mL concentration of fluorescein in PBS.
The image was taken during open surgery, approximately 80 minutes post-IV administration of 6 mL of a 20 mg/mL concentration of fluorescein in PBS. The pig weighed about 82 pounds.

CC1(C)C(/C=C/C=C/C=C/C=C2\N(CCCCS(=O)(=O)[O-])c3ccc4ccccc4c3C2(C)C)=[N+](CCCCS(=O)(=O)[O-])c2ccc3ccccc3c21.[Na+] [ICG]
fluorescence of feces in ex-vivo intestine (hepatobiliary excretion) [1]: feces that fluoresce due to the ICG within | fluorescence decay time, impaired liver function versus normal liver function ([2]; partially hepatectomized rats (33%-38% of liver ligated) vs normal rat, single exponential fit): almost an order of magnitude longer | loss of initial fluorescence signal at the ear ([2]; rat, after about 15 minutes post-bolus injection of 500 mL of 1.007 mM ICG solution (FIG. 3)): approximately 90%

O=C1OC2(c3ccc(O)cc3Oc3cc(O)ccc32)c2ccccc21 [fluorescein]
appearance of fluorescence in the cystic duct [3]: fluorescence from fluorescein traveling through the cystic duct
